For 33 molecules, IC50 results are on record in patent US20120004228A1, “Bis Aromatic Compounds for Use as LTC4 Synthase Inhibitors” (BIOLIPOX AB, priority 2009, published 2012).

The structures appear in SMILES notation.

Usually IC50 stands for the concentration that gives 50% inhibition.

The experiment deals with T1, Recombinant human LTC4 synthase (Homo sapiens, UniProt Q16873).
T1 construct: made in house; host or cells: Pichia pastoris ('Piccia pastoralis' [sic])
T1 sequence (Q16873 1-150): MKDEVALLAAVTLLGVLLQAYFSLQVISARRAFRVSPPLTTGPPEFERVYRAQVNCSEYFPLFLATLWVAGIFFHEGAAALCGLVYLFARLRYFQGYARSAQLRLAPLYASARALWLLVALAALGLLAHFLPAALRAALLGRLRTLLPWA
The experiment is described as follows: In vitro LTC4 synthase assay (LTA4 to LTC4, HTRF detection). It is filed as biochemical. Here is the method: In the assay, LTC4 synthase catalyses the reaction where the substrate LTA4 is converted to LTC4. Recombinant human LTC4 synthase is expressed in Piccia pastoralis and the purified enzyme is dissolved in 25 mM tris-buffer pH 7.8 supplemented with 0.1 mM glutathione (GSH) and stored at −80° C. The assay is performed in phosphate buffered saline (PBS) pH 7.4 and 5 mM GSH in 384-well plates.
The following is added chronologically to each well:
1. 48 μL LTC4 synthase in PBS with 5 mM GSH. The total protein concentration in this solution is 0.5 μg/mL. 2. 1 μL inhibitor in DMSO (final concentration 10 μM). 3. Incubation of the plate at room temperature for 10 min. 4. 1 μL LTA4 (final concentration 2.5 μM). 5. Incubation of the plate at room temperature for 5 min. 6. 10 μL of the incubation mixture is analysed using homogenous time resolved fluorescent (HTRF) detection.
(Time-resolved FRET reads energy transfer from a long-lived donor to a nearby acceptor.)
As for `COc1ccc(CN(C)c2cc(C(=O)O)cc(C(=O)c3ccc(N(C)c4ccc(Cl)cc4)cn3)c2)cc1` [9:9, 3-{5-[(4-Chlorophenyl)(methyl)amino]picolinoyl}-5-[(4-methoxybenzyl)(methyl)-amino]benzoic acid], the IC50 was 123 nM. Next, `CN(c1ccc(Cl)cc1)c1ccc(C(=O)c2cc(Oc3ccccc3Cl)cc(C(=O)O)c2)nc1` [8:8, 3-(2-Chlorophenoxy)-{5-[(4-chlorophenyl)(methyl)amino]picolinoyl}benzoic acid]: 77 nM; `CN(c1ccc(Cl)cc1)c1ccc(C(=O)c2cc(C(=O)O)cc(C(=O)Nc3cc(F)ccc3F)c2)cc1` [2:15, 3-{4-[(4-Chlorophenyl)(methyl)amino]benzoyl}-5-(2,5-difluorophenyl-carbamoyl)benzoic acid]: 682 nM; `CN(c1ccc(Cl)cc1)c1ccc(C(=O)c2cc(NCc3ccccc3)cc(C(=O)O)c2)cc1` [10:10, 3-Benzylamino-5-{4-[(4-chlorophenyl)(methyl)amino]benzoyl}benzoic acid]: 360 nM. For `CN(c1ccc(Cl)cc1)c1ccc(C(=O)c2cc(Nc3cccc(Cl)c3)cc(C(=O)O)c2)nc1` [Example 9:2, 3-{5-[(4-Chlorophenyl)(methyl)amino]picolinoyl}-5-(3-chlorophenylamino)-benzoic acid] the value was 248 nM; for `CN(c1ccc(Cl)cc1)c1ccc(C(=O)c2cc(C(=O)O)cc(N(CC3CC3)c3ccccc3)c2)nc1` [Example 9:7, 3-{5-[(4-Chlorophenyl)(methyl)amino]picolinoyl}-5-[(cyclopropylmethyl)(phenyl)-amino]benzoic acid], 32 nM. As to `COCCN(c1cc(C(=O)O)cc(C(=O)c2ccc(N(C)c3ccc(Cl)cc3)cc2)c1)c1ccccc1F` [10:25, 3-{4-[(4-Chlorophenyl)(methyl)amino]benzoyl}-5-[(2-fluorophenyl)(2-methoxy-ethyl)amino]benzoic acid], the half-inhibitory concentration (IC50) came to 76 nM.

For the molecule `CN(c1ccc(Cl)cc1)c1ccc(C(=O)c2cc(C(=O)O)cc(N(C(=O)CC(C)(C)C)c3ccccc3)c2)nc1` [9:18, 3-{5-[(4-Chlorophenyl)(methyl)amino]picolinoyl}-5-(3,3-dimethyl-N-phenyl-butylamido)benzoic acid], the IC50 stood at 160 nM. As to `CN(c1ccc(Cl)cc1)c1ccc(C(=O)c2cc(C(=O)O)cc(N(C)c3ccc(Cl)cc3)c2)cc1` [Example 10:1, 3-[(4-Chlorophenyl)(methyl)amino]-5-{4-[(4-chlorophenyl)(methyl)amino]benzoyl}-benzoic acid], the IC50 was 41 nM. Regarding `CN(c1ccc(Cl)cc1)c1ccc(C(=NO)c2cc(Oc3ccccc3)cc(C(=O)O)c2)cc1` (mixture of isomers) [Example 17, 3-({4-[(4-Chlorophenyl)(methyl)amino]phenyl}(hydroxyimino)methyl)-5-phenoxy-benzoic acid], the IC50 was found to be 834 nM.

In the case of `CN(c1ccc(Cl)cc1)c1ccc(C(=O)c2cc(C(=O)O)cc(N(C(=O)CC3CCCC3)c3ccccc3)c2)cc1` [10:39, 3-{4-[(4-Chlorophenyl)(methyl)amino]benzoyl}-5-[2-cyclopentyl-(N-phenyl)-acetamido]benzoic acid], the IC50 was found to be 192 nM. As for `CN(c1ccc(Cl)cc1)c1ccc(C(=O)c2cc(C(=O)O)cc(N(CC3OCCO3)c3ccccc3)c2)cc1` [10:29, 3-{[(1,3-Dioxolan-2-yl)methyl](phenyl)amino}-5-{4-[(4-chlorophenyl)(methyl)-amino]benzoyl}benzoic acid], the IC50 is 40 nM. With `CN(c1ccc(Cl)cc1)c1ccc(C(=O)c2cc(C(=O)O)cc(C(=O)Nc3ccccc3)c2)nc1` [Example 2:1, 3-{5-[(4-Chlorophenyl)(methyl)aminol]picolinoyl}-5-(phenylcarbamoyl)benzoic acid], the half-maximal inhibitory concentration (IC50) worked out at 449 nM. Consider `CN(c1ccc(Cl)cc1)c1ccc(C(=O)c2cc(C(=O)O)cc(N(CC3CCC3)c3ccccc3)c2)cc1` [10:30, 3-{4-[(4-Chlorophenyl)(methyl)amino]benzoyl}-5-[(cyclobutylmethyl)(phenyl)-amino]benzoic acid], for which the IC50 came out at 147 nM. For `CN(c1ccc(Cl)cc1)c1ccc(C(=O)c2cc(NCc3ccc(Cl)cc3Cl)cc(C(=O)O)c2)cc1` [10:14, 3-{4-[(4-Chlorophenyl)(methyl)amino]benzoyl}-5-(2,4-dichlorobenzylamino)-benzoic acid], the IC50 is 75 nM. Regarding `CN(c1ccc(Cl)cc1)c1ccc(C(=O)c2cc(C(=O)O)cc(-n3ccc4ccccc43)c2)nc1` [Example 16, 3-{5-[(4-Chlorophenyl)(methyl)aminol]picolinoyl}-5-(1-indolyl)benzoic acid], the IC50 turned out to be 259 nM.

Consider `COc1ccccc1Nc1cc(C(=O)O)cc(C(=O)c2ccc(N(C)c3ccc(Cl)cc3)cc2)c1` [10:15, 3-{4-[(4-Chlorophenyl)(methyl)amino]benzoyl}-5-(2-methoxyphenylamino)-benzoic acid], for which the IC50 is 360 nM. With `CN(c1ccc(Cl)cc1)c1ccc(C(=O)c2cc(NCc3ccc(Cl)cc3)cc(C(=O)O)c2)cc1` [10:20, 3-(4-Chlorobenzylamino)-5-{4-[(4-chlorophenyl)(methyl)amino]benzoyl}-benzoic acid], the IC50 was determined as 118 nM.

`CN(c1ccc(Cl)cc1)c1ccc(C(=O)c2cc(NC(=O)c3ccccc3)cc(C(=O)O)c2)nc1` [2:8, 3-Benzamido-5-{5-[(4-chlorophenyl)(methyl)amino]picolinoyl}benzoic acid]: the IC50 amounted to 214 nM. Next, `COc1ccc(NC(=O)c2cc(C(=O)O)cc(C(=O)c3ccc(N(C)c4ccc(Cl)cc4)cc3)c2)cc1OC` [2:14, 3-{4-[(4-Chlorophenyl)(methyl)amino]benzoyl}-5-(3,4-dimethoxyphenyl-carbamoyl)benzoic acid]: 925 nM; `CC(=O)N(c1cc(C(=O)O)cc(C(=O)c2ccc(N(C)c3ccc(Cl)cc3)cn2)c1)C1CCCCC1` [9:43, 3-{5-[(4-Chlorophenyl)(methyl)amino]picolinoyl}-5-(N-cyclohexylacetamido)-benzoic acid]: 1820 nM. For `CN(Cc1ccc(Cl)cc1)c1cc(C(=O)O)cc(C(=O)c2ccc(N(C)c3ccc(Cl)cc3)cn2)c1` [9:12, 3-((4-Chlorobenzyl)(methyl)amino)-5-{5-[(4-chlorophenyl)(methyl)amino]-picolinoyl}benzoic acid], the IC50 was found to be 170 nM. For `COc1ccccc1Oc1cc(C(=O)O)cc(C(=O)c2ccc(N(C)c3ccc(Cl)cc3)cn2)c1` [8:4, 3-{5-[(4-Chlorophenyl)(methyl)amino]picolinoyl}-5-(2-methoxyphenoxy)benzoic acid], the IC50 is 525 nM. As to `CN(c1ccc(Cl)cc1)c1ccc(C(=O)c2cc(C(=O)O)cc(N(CCCCO)c3cccnc3)c2)nc1` [9:39, 3-{5-[(4-Chlorophenyl)(methyl)amino]picolinoyl}-5-[(4-hydroxybutyl)(3-pyridyl)-amino]benzoic acid], the IC50 stood at 126 nM.

As for `CN(c1ccc(Cl)cc1)c1ccc(C(=O)c2cc(Nc3ccccc3OC(F)F)cc(C(=O)O)c2)cc1` [10:12, 3-{4-[(4-Chlorophenyl)(methyl)amino]benzoyl}-5-(2-difluoromethoxyphenyl-amino)benzoic acid], the IC50 came out at 110 nM. For `COc1ccc(Nc2cc(C(=O)O)cc(C(=O)c3ccc(N(C)c4ccc(Cl)cc4)cn3)c2)cc1` [9:32, 3-{5-[(4-Chlorophenyl)(methyl)amino]picolinoyl}-5-(4-methoxyphenylamino)-benzoic acid], the IC50 was found to be 353 nM. `CN(c1ccc(Cl)cc1)c1ccc(C(=O)c2cc(C(=O)O)cc(N(C)c3ccccc3)c2)nc1` [9:6, 3-{5-[(4-Chlorophenyl)(methyl)amino]picolinoyl}-5-[methyl(phenyl)amino]-benzoic acid]: the IC50 amounted to 33 nM.

Turning to `Cc1ccccc1CNc1cc(C(=O)O)cc(C(=O)c2ccc(N(C)c3ccc(Cl)cc3)cc2)c1` [10:16, 3-{4-[(4-Chlorophenyl)(methyl)amino]benzoyl}-5-(2-methylbenzylamino)-benzoic acid], the IC50 was 284 nM. Turning to `CN(c1ccc(Cl)cc1)c1ccc(C(=O)c2cc(C(=O)O)cc(C(=O)c3ccccc3)c2)nc1` [Example 14, 3-Benzoyl-5-{5-[(4-chlorophenyl)(methyl)amino]picolinoyl}benzoic acid], the IC50 stood at 146 nM.

On to `CN(c1ccc(Cl)cc1)c1ccc(C(=O)c2cc(C(=O)O)cc(N(CCCCO)c3ccc4c(c3)OCCO4)c2)nc1` [9:35, 3-{5-[(4-Chlorophenyl)(methyl)amino]picolinoyl}-5-[(3,4-ethylenedioxyphenyl)-(4-hydroxybutyl)amino]benzoic acid], for which the IC50 came to 70 nM. Turning to `CN(c1ccc(Cl)cc1)c1ccc(C(=O)c2cc(OCc3ccc4c(c3)OCO4)cc(C(=O)O)c2)nc1` [11:5, 3-{5-[(4-Chlorophenyl)(methyl)amino]picolinoyl}-5-(3,4-methylenedioxy-benzyloxy)benzoic acid], the IC50 is 584 nM.

As for `CN(c1ccc(Cl)cc1)c1ccc(C(=O)c2cc(Oc3ccc4c(c3)OCO4)cc(C(=O)O)c2)cc1` [8:12, 5-{4-[(4-Chlorophenyl)(methyl)amino]benzoyl}-3-(3,4-methylenedioxyphenoxy)-benzoic acid], the IC50 stood at 109 nM. Consider `CN(c1ccc(Cl)cc1)c1cc(C(=O)O)cc(C(=O)c2ccc(N(CC3CC3)c3ccc(Cl)cc3)cn2)c1` [Example 9:16, 3-{5-[(4-Chlorophenyl)(cyclopropylmethyl)amino]picolinoyl}-5-[(4-chlorophenyl)-(methyl)amino]benzoic acid], for which the IC50 is 17 nM.
